# According to patent publication US20230135524A1, “ARYL HYDANTOIN HETEROCYCLES AND METHODS OF USE” (The United States of America,as represented by the …, priority 2020, published 2023):
# Biological target: T1, AR (Homo sapiens, UniProt P10275)
# T1 construct: host or cells: HEK 293T
# T1 sequence (P10275 1-920): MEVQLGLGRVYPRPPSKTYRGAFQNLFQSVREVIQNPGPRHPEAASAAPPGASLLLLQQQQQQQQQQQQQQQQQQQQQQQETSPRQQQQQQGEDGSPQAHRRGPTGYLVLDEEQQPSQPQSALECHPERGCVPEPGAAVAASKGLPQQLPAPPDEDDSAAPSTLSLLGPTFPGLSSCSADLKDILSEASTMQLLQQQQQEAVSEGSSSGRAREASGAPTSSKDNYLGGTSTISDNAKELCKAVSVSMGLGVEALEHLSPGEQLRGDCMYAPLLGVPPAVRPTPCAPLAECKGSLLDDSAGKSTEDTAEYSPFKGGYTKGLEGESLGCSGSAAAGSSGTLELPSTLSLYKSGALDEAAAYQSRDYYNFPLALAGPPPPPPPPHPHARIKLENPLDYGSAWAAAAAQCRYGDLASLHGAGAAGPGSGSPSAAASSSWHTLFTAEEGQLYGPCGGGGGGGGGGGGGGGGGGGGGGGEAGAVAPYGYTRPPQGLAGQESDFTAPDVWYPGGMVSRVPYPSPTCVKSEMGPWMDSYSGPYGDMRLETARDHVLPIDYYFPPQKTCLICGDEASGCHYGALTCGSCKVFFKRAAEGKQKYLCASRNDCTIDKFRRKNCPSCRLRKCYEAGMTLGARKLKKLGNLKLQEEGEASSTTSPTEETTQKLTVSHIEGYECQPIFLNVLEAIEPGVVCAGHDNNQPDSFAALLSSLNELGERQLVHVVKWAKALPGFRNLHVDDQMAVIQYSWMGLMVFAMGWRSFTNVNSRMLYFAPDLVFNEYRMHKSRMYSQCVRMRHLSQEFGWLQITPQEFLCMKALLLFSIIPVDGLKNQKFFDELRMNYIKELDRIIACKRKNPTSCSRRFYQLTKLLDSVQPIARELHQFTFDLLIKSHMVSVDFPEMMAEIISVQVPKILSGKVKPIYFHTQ
# Test: AR transcriptional output, ARE-luciferase assay in HEK 293T cells
# Type: cell-based
# Procedure: 100% is set to the activity with 200 μM testosterone, and 0% is set to the basal level (no ligand).
# Cells were maintained in steroid free media, and stimulated with 200 μM testosterone, followed immediately by administration of exemplary compounds (Table 1, below). RLU is relative luciferase units, relative to DMSO control with 200 μM testosterone alone. Data represent an average of 3 independent experiments performed in triplicate wells per compounds at 10 μM.
# Cells were maintained in steroid-free media, and stimulated with 200 μM testosterone, followed immediately by administration of a test compound. […] Compounds were dosed at 10 μM in FIGS. 6A and 6B.
# Cells were maintained in steroid-free media, and stimulated with 200 μM testosterone, followed immediately by administration of a test compound.
smiles,measurement,setting,value
"CC1(C)C(=O)N(c2ccc(C#N)c(C(F)(F)F)c2)C(=S)N1Cc1ccc(-c2c[nH]nn2)cc1 [Compound 15a, 4-(3-(4-(1H-1,2,3-triazol-4-yl)benzyl)-4,4-dimethyl-5-oxo-2-thioxoimidazolidin-1-yl)-2-(trifluoromethyl)benzonitrile]",antagonist or inverse agonist activity on AR transcriptional activity (in words),"10 μM, HEK 293T, FIG. 6A",reduced the transcriptional activity of the AR well below the expression in the absence of any steroids or ligands
same,activity at 10 µM,"HEK-293T, read-out: AR antagonist activity (% RLU)",-109%
